Results on eleven compounds are retold here after patent US20220160686A1, “MACROCYCLIC AZOLOPYRIDINE DERIVATIVES AS EED AND PRC2 MODULATORS” (Fulcrum Therapeutics, Inc., priority 2019, published 2022).

The target of one test is EZH2/PRC2 complex (Homo sapiens, UniProt O75530). The experiment in a line: Histone methyltransferase assay (radioisotope-based HotSpot). It is filed as biochemical. As to conditions: EZH2/PRC2 complex 10 nM, core histone substrate 0.05 mg/ml, 3H-SAM 1 μM; read-out: IC50, inhibitory effects on the HMT enzyme. How it is done:
Effect of compounds of the present disclosure on EZH2/PRC2 complex methyltransferase functional activity was measured using the radioisotope-based HotSpot assay described by Horiuchi, K. Y., et al. Assay Drug Dev Technol. 11(4):227-36 (2013). Briefly, compounds were prepared in a 10-point 3-fold serial dilution in DMSO from a 10 mM stock in ECHO qualified plate using Assist Plus (Integra Biosciences) liquid handler. […] Nanoliter quantities of each compound's concentration series were transferred into the enzyme/substrate mix using (Echo 550, LabCyte Inc. Sunnyvale, Calif.) acoustic dispenser and pre-incubated for 20 min at room temperature. The methylation reaction was initiated by the addition of 1 μl of 5 μM S-Adenosyl-L-[methyl-^3H]methionine (^3H-SAM) and incubated at 30° C. for 1 h. The final concentration of the EZH2/PRC2 complex, core histone substrate and ^3H-SAM were 10 nM, 0.05 mg/ml, and 1 μM respectively. The % activity of test samples were calculated with reference to positive (no compound) and negative (no EZH2/PRC2) controls on the plate using Excel (Microsoft). The resulting values were exported to Prism (GraphPad software) to generate concentration response curves and IC50 values using the four-parameter logistic equation.

In test [1] the test system is human P-glycoprotein HEK cells (HEK-P-gp). Kind of test: H3K27me3 immunocytochemistry assay in P-gp expressing HEK293T cells, with or without elacridar. It counts as cell-based. Particulars: Homo sapiens, 4 days compound treatment. Put shortly:
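HEK293T stably expressing human ABCB1 (vinblastine-selected), 1000 cells/well, treated with serially diluted compound for 4 days at 37° C, with or without 250 nM elacridar. Fixed cells stained with anti-H3K27me3 plus Alexa 488 secondary and Hoechst; imaged at 10×, nuclei identified by Hoechst.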

The target of test [2] is T1, biotinylated AVI-tagged EED (76-441) (Homo sapiens, UniProt O75530).
T1 construct: GST (N, cleaved yes); made in house; host or cells: E. coli BL21(DE3), co-expressed with pGro7
T1 sequence (O75530 76-441 limits assumed): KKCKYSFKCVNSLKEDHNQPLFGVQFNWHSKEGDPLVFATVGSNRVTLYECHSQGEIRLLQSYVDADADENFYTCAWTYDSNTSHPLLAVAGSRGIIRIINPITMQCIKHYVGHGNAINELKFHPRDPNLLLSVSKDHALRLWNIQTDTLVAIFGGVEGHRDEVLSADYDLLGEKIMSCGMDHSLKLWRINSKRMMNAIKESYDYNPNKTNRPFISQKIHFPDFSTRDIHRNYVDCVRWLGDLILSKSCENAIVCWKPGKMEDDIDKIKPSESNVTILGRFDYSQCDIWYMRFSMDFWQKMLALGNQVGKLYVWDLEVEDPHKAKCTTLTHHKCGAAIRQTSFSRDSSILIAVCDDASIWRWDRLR
The experiment in a line: EED binding SPR assay. As to conditions: 1:1 binding model; read-out: KD, equilibrium dissociation constant as measured by surface plasmon resonance (SPR). The protocol: Biotinylated AVI-tagged EED was produced using standard molecular biology techniques. A pGEX plasmid with a GST-preScission-cleavage-site-AVI-EED(76-441) sequence was placed into E. coli BL21(DE3) cells and co-expressed with pGro7. The E. coli were grown in shaker flasks in LB with ampicillin at 37° C. at 110 rpm to an OD600=0.7. At this time the temperature was lowered to 15° C. and IPTG was added to 0.3 mM. The cells were allowed to express overnight. Cells were then harvested.
For purification, the E. coli cell pellet was lysed into a buffer of 50 mM Tris pH 8.0, 500 mM NaCl, 5% glycerol and 5 mM DTT. The lysate was loaded onto a GSTrap FF column from GE Healthcare. After washing, the bound protein was eluted with 50 mM Tris pH 8.0, 500 mM NaCl, 5% glycerol, 5 mM DTT and 15 mM GSH. The collected fractions were combined and incubated with PreScission enzyme overnight at 4° C. The cleaved protein was then passed through a GSTrap FF column in a buffer of 50 mM Tris pH 8.0, 500 mM NaCl, 5% glycerol and 5 mM DTT. The cleaved protein was confirmed through mass spectrometry. The AVI-EED(76-441) was then buffer exchanged into 50 mM Bicine pH 8.3, 10 mM ATP, 10 mM magnesium acetate and 50 μM D-Biotin. 3 mg of BirA enzyme was added to the system and incubated at 4° C. for 2 hours to biotinylate the AVI-EED(76-441). The biotinylated-AVI-EED(76-441) was then buffer exchanged into 20 mM Tris pH 8.0 and 400 mM NaCl and passed through a size exclusion column of Superdex 200 16/60 Increase. The purified monomeric biotinylated-AVI-EED(76-441) was confirmed through SDS-PAGE, LC-MS and analytical size exclusion chromatography.
All surface plasmon resonance (SPR) assays were performed using a GE Biacore S200 utilizing GE Biotin CAPture chips. Capturing of CAP reagents was performed with a flow rate of 2 μL/min for 90 seconds. For protein capturing, a solution of 50 μg/mL of biotinylated AVI-tagged EED (76-441) in 10 mM HEPES pH 7.4, 150 mM NaCl, 0.05% Tween 20 and 2% DMSO (Running Buffer) was flowed over the chip with a flow rate of 5 μL/min for a contact time of 30 seconds. Final readings were 2200-2400 RU. For compounds, 7 concentrations were made with 3-dilutions using the Running Buffer for a total of 300 μL of each concentration in a 96-well microplate. During the binding experiments, a flow rate of […] was used for an association time of 90 seconds followed by a disassociation time of 180 seconds. The compartment temperature was set at 10° C. with the chip at 25° C. During regeneration the flow rate was set to 30 μL/min for 30 seconds. All fittings were done using a 1:1 binding model.

Where [3] appears, read: HEK293, 96 h, without elacridar, read-out: IC50, inhibitory activity on human P-glycoprotein HEK cells (HEK-P-gp).
Where [4] appears, read: HEK293, with 250 nM elacridar, read-out: IC50, inhibitory activity on human P-glycoprotein HEK cells (HEK-P-gp) pretreated with elacridar.

Each structure is given as a SMILES string. Like-named read-outs stand apart in the source and are kept apart here.

EZH2/PRC2 complex, sequence (O75530 whole entry): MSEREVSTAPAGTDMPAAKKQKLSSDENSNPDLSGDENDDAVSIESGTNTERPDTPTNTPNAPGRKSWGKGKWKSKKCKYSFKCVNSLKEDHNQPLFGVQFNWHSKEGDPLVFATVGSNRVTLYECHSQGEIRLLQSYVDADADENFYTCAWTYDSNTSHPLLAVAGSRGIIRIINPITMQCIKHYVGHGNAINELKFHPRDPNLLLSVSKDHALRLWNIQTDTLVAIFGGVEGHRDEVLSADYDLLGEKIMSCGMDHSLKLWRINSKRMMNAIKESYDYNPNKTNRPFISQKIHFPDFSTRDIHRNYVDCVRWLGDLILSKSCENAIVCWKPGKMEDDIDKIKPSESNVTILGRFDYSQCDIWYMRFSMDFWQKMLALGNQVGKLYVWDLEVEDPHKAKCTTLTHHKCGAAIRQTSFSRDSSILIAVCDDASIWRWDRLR
EZH2/PRC2 complex, sequence (Q15910 whole entry partner): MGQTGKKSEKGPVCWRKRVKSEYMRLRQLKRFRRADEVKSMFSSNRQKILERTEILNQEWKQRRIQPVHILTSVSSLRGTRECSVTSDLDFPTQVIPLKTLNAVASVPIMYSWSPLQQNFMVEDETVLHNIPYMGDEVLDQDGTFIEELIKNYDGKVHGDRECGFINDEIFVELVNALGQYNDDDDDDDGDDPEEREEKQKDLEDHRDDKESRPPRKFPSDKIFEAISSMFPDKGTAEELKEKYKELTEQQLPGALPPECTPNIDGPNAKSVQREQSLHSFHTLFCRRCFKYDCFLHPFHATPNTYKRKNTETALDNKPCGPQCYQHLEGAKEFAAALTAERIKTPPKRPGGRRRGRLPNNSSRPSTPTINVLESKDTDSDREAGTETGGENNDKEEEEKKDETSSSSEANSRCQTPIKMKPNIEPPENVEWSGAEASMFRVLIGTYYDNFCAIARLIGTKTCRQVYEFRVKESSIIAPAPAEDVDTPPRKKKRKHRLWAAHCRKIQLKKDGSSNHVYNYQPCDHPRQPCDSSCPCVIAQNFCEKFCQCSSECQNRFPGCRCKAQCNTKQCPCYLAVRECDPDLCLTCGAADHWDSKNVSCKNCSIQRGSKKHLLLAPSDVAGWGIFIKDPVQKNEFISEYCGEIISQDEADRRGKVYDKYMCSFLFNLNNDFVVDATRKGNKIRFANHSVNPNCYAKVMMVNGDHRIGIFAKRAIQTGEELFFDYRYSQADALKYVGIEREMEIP
EZH2/PRC2 complex, sequence (Q15022 whole entry partner): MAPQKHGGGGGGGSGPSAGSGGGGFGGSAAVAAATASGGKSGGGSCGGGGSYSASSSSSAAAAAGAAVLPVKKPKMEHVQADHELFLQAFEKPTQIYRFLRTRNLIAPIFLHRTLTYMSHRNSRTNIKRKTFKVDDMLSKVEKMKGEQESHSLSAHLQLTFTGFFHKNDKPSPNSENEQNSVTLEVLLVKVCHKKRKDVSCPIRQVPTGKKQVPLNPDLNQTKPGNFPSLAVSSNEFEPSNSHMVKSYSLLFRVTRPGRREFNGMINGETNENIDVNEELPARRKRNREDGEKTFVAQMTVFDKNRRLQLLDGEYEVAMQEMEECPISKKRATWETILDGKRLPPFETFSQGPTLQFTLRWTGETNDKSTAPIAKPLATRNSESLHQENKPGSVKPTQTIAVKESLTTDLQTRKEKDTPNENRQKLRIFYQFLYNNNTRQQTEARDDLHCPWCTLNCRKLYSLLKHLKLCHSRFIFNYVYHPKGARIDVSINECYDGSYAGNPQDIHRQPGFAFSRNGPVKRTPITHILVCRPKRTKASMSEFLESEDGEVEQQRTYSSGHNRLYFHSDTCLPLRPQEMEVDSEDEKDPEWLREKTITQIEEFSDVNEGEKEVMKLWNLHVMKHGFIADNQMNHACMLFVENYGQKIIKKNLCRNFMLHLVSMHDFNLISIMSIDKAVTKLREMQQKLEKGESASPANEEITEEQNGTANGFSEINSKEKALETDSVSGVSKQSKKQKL

As usually defined, the IC50 is the concentration needed to halve the response being measured. `CC(=O)N1CCC(c2cc3c(n4cnnc24)NCc2c(F)cccc2COC3)CC1` [Compound 198, 1-(4-(12-fluoro-6,8,13,14-tetrahydro-[1,2,4]triazolo[4′,3′:1,6]pyrido[3,2-c]benzo[g][1,5]oxazonin-4-yl)piperidin-1-yl)ethan-1-one]: the IC50 on EZH2/PRC2 complex was more than 500 nM.

`Cc1ncccc1-c1cc2c(n3cnnc13)NCc1c(F)ccc3c1[C@H](CO3)CO2` [Compound 185, (R)-12-fluoro-4-(2-methylpyridin-3-yl)-7a,8,13,14-tetrahydro-7H-[1,2,4]triazolo[4′,3′:1,6]pyrido[3,2-b]benzofuro[4,3-fg][1,4]oxazonine]: the IC50 (at EZH2/PRC2 complex; in test [1] (setting [3]); in test [1] (setting [4])) was more than 500 nM each time.

The Kd is the concentration at which binding is half-saturated. As for `Fc1ccc2c3c1CNc1c(cc(-c4cnc(C5CC5)nc4)c4nncn14)OC[C@@H]3CO2` [Compound 178, (S)-4-(2-cyclopropylpyrimidin-5-yl)-12-fluoro-7a,8,13,14-tetrahydro-7H-[1,2,4]triazolo[4′,3′:1,6]pyrido[3,2-b]benzofuro[4,3-fg][1,4]oxazonine], the dissociation constant Kd in test [2] was less than 2.5 nM. Further, the figures for the IC50 in test [1] (setting [3]) and in test [1] (setting [4]) were 100 to 500 nM and 50 to 100 nM, respectively.

Regarding `CNC(=O)CCc1ccc(-c2cc3c(n4cnnc24)NCc2c(F)ccc4c2C(CO4)CO3)c(C)n1` [Compound 191, (S)-3-(5-(12-fluoro-7a,8,13,14-tetrahydro-7H-[1,2,4]triazolo[4′,3′:1,6]pyrido[3,2-b]benzofuro[4,3-fg][1,4]oxazonin-4-yl)-6-methylpyridin-2-yl)-N-methylpropanamide], the Kd in test [2] is less than 2.5 nM. Besides, the IC50 in test [1] (setting [3]) lay within 50 to 100 nM; in test [1] (setting [4]) it was 100 to 500 nM.

In the case of `COc1ccc(-c2cc3c(n4cnnc24)NCc2c(F)ccc4c2[C@H](CO4)CO3)c(C)n1` [Example 106], the Kd in test [2] is less than 2.5 nM. The IC50 in test [1] (setting [3]) lay in the range of 50 to 100 nM; in test [1] (setting [4]), 25 to 50 nM.

Consider `Cc1ccnc(-c2cc3c(n4cnnc24)NCc2c(F)ccc4c2C(CO4)CO3)c1` (stereo in doubt) [Compound 149, (S)-12-fluoro-4-(4-methylpyridin-2-yl)-7a,8,13,14-tetrahydro-7H-[1,2,4]triazolo[4',3':1,6]pyrido]3,2-b]benzofuro[4,3-fg][1,4]oxazonine], for which the Kd in test [2] lay in the range of 10 to 50 nM. Besides, the IC50 in test [1] (setting [3]) and in test [1] (setting [4]) was more than 500 nM each time.

As for `Fc1ccc2c3c1CNc1c(cc(-c4cnc(C(F)(F)F)nc4)c4nncn14)OC[C@H]3CO2` [Example 114], the Kd in test [2] was less than 2.5 nM. Also, the IC50 in test [1] (setting [3]) and in test [1] (setting [4]) was 100 to 500 nM in each case.

As to `Fc1ccc2c3c1CNc1c(cc(-c4cnn5c4CCC5)c4nncn14)OC[C@@H]3CO2` [Compound 171, (S)-4-(5,6-dihydro-4H-pyrrolo[1,2-b]pyrazol-3-yl)-12-fluoro-7a,8,13,14-tetrahydro-7H-[1,2,4]triazolo[4',3':1,6]pyrido[3,2-b]benzofuro [4,3-fg][1,4] oxanzonine], the Kd in test [2] was less than 2.5 nM. Besides, the IC50 in test [1] (setting [3]) and in test [1] (setting [4]) was more than 500 nM in each case.

As to `Fc1ccc2c3c1CNc1c(cc(-c4ncncc4Cl)c4nncn14)OC[C@@H]3CO2` [Compound 163, (S)-4-(5-chloropyrimidin-4-yl)-12-fluoro-7a,8,13,14-tetrahydro-7H-[1,2,4]triazolo[4′,3′:1,6]pyrido[3,2-b]benzofuro[4,3-fg][1,4]oxazonine], in test [2], the Kd is less than 2.5 nM. In addition, the IC50 lay in the range of 100 to 500 nM in test [1] (setting [3]) and 25 to 50 nM in test [1] (setting [4]).

On to `CCOc1ncc(-c2cc3c(n4cnnc24)NCc2c(F)ccc4c2[C@H](CO4)CO3)cn1` [Example 109], for which the Kd in test [2] was less than 2.5 nM. Also, the IC50 in test [1] (setting [3]) and in test [1] (setting [4]) was 100 to 500 nM each time.

With `Cn1ncc(C#N)c1-c1cc2c(n3cnnc13)NCc1c(F)ccc3c1C(CO3)CO2` [Compound 170, (S)-5-(12-fluoro-7a,8,13,14-tetrahydro-7H-[1,2,4]triazolo[4′,3′:1,6]pyrido[3,2-b]benzofuro[4,3-fg][1,4]oxazonin-4-yl)-1-methyl-1H-pyrazole-4-carbonitrile], the dissociation constant (Kd) in test [2] is less than 2.5 nM. The IC50 in test [1] (setting [3]) and in test [1] (setting [4]) was 100 to 500 nM each time.
